Experiment [1] relates to Rhipicephalus sanguineus (Dog Tick). In words: Activity in vitro against Rhipicephalus sanguineus (dog tick), Assay B, coated glass vials. The note with it: contact with coated vials, assessment at 48 hours; for pest or weed control at 20 ppm: Rhipicephalus sanguineus, read-out: efficacy (EC50). The protocol:
Activity In Vitro Against Rhipicephalus sanguineus (Dog Tick)—Assay B
A solution of the test compounds is used to coat the inner wall of glass vials containing a filter paper on the bottom of each vial. A second filter paper is also coated and placed in the cap of the vial. Vials and caps are allowed to dry overnight. Each treated vial is infested with ticks. Contact of the ticks with residues is induced by holding the vials in a controlled environment and assessment is performed at 48 hours after application in comparison with untreated glass vials and solvent-treated glass vials.

For experiment [2], the system named is Lucilla Cuprina (Australian Sheep Blowfly). In words: Activity in vitro against Lucilla cuprina (Australian sheep blowfly), Assay B. More on the design: species or system L. cuprina. To be noted: larvae, percent mortality at 24 hours; for pest or weed control at 10 ppm: Lucilia cuprina, compound in bovine serum, read-out: efficacy (EC50). The protocol:
Activity In Vitro Against Lucilla Cuprina (Australian Sheep Blowfly)—Assay B
Compound formulated in bovine serum is dispensed into scintillation. A dental cotton roll is added to each vial to absorb the compound solution. L. cuprina larvae are added to each treatment vial. The vials are capped and held for 24 hours in an environmental chamber at appropriate temperature, humidity and light/dark cycles. Evaluations are only made at 24 hours because dead larvae after 24 hours may be cannibalized by the remaining live ones. Vials are examined for percent mortality.

In experiment [3] the test system is Ctenocephalides Felis (Cat Flea). In words: Activity in vitro against Ctenocephalides felis (cat flea), Assay B. The note with it: % mortality at 48 hours post infestation; for pest or weed control at 10 ppm: Ctenocephalides felis, at 10 ppm in bovine blood, read-out: efficacy (EC50). The protocol:
Activity In Vitro Against Ctenocephalides Felis (Cat Flea)—Assay B
Test compounds are added to organic bovine blood contained in an artificial feeding container. Compounds with known insecticidal activity are included to serve as positive controls. Newly emerged unfed adult fleas from a laboratory colony are aspirated into each vial. The test cages are maintained using the artificial feeding apparatus to allow ingestion of compound. Fleas are evaluated for % mortality at 48 hours post infestation. Fleas showing normal movement and/or jumping ability are considered viable and those showing no movement are scored as dead.

Regarding `CCN(C(=O)c1cc(C#N)cc(C(F)(F)F)c1)C(C)c1ncnn1-c1ncccn1` (stereo not drawn) [Example 59, 3-Cyano-N-ethyl-N-[1-(2-pyrimidin-2-yl-1,2,4-triazol-3-yl)ethyl]-5-(trifluoromethyl)benzamide], in experiment [1], the pest or weed control at 20 ppm was greater than 50% and the EC50 came to 14 ppm. Further, in experiment [2], the pest or weed control at 10 ppm is greater than 50% and the EC50 is 0.77 ppm. Besides, in experiment [3], the EC50 came to 1.6 ppm and the pest or weed control at 10 ppm is greater than 50%.
Regarding `CC(c1ncnn1-c1ncccn1)N(C)C(=O)c1cc(C#N)cc(C(F)(F)F)c1` (stereo not drawn) [Example 60, 3-Cyano-N-methyl-N-[1-(2-pyrimidin-2-yl-1,2,4-triazol-3-yl)ethyl]-5-(trifluoromethyl)benzamide], in experiment [1], the pest or weed control at 20 ppm was greater than 50%. Also, the pest or weed control at 10 ppm in experiment [2] and in experiment [3] was greater than 50% each time.
Take `Cc1nc(C(C)N(CC2CC2)C(=O)c2cc(C(F)(F)F)cc(C(F)(F)F)c2)n(-c2ncccn2)n1` (stereo not drawn) [Example 61, N-(Cyclopropylmethyl)-N-[1-(5-methyl-2-pyrimidin-2-yl-1,2,4-triazol-3-yl)ethyl]-3,5-bis(trifluoromethyl)benzamide]: in experiment [1], the pest or weed control at 20 ppm was greater than 50%. Also, the pest or weed control at 10 ppm in experiment [2] and in experiment [3] was greater than 50% in each case.
Take `CC(NC(=O)c1cc(C(F)(F)F)cc(C(F)(F)F)c1)c1ncnn1-c1ncccn1` (stereo not drawn) [Example 63, N-[1-(2-Pyrimidin-2-yl-1,2,4-triazol-3-yl)ethyl]-3,5-bis(trifluoromethyl)benzamide]: in experiment [1], the pest or weed control at 20 ppm is greater than 50%. Further, the pest or weed control at 10 ppm in experiment [2] and in experiment [3] was greater than 50% in each case.
With `CC(c1ncnn1-c1ncccn1)N(C)C(=O)c1cc(C(F)(F)F)cc(C(F)(F)F)c1` (stereo not drawn) [Example 65, N-Methyl-N-[1-(2-pyrimidin-2-yl-1,2,4-triazol-3-yl)ethyl]-3,5-bis(trifluoromethyl)benzamide], in experiment [1], the pest or weed control at 20 ppm is greater than 50%. For the same compound, the pest or weed control at 10 ppm in experiment [2] and in experiment [3] was greater than 50% each time.
For `CC(c1ncnn1-c1ncccn1)N(C[Si](C)(C)C)C(=O)c1cc(C(F)(F)F)cc(C(F)(F)F)c1` (stereo not drawn) [Example 67, N-[1-(2-pyrimidin-2-yl-1,2,4-triazol-3-yl)ethyl]-3,5-bis(trifluoromethyl)-N-(trimethylsilylmethyl)benzamide], the pest or weed control at 20 ppm in experiment [1] was greater than 50%. The pest or weed control at 10 ppm in experiment [2] and in experiment [3] was greater than 50% throughout.
On to `C[C@H](NC(=O)c1cccc(C#N)c1)c1ncnn1-c1ncc(F)cn1` [Example 68, 3-Cyano-N-[(1S)-1-[2-(5-fluoropyrimidin-2-yl)-1,2,4-triazol-3-yl]ethyl]benzamide], for which the pest or weed control at 20 ppm in experiment [1] was greater than 50%. In addition, the pest or weed control at 10 ppm in experiment [2] and in experiment [3] was greater than 50% each time.
`C[C@H](NC(=O)c1cc(C(F)(F)F)cc(C(F)(F)F)c1)c1ncnn1-c1ncc(F)cn1` [Example 69, N-[(1S)-1-[2-(5-Fluoropyrimidin-2-yl)-1,2,4-triazol-3-yl]ethyl]-3,5-bis(trifluoromethyl)benzamide]: the pest or weed control at 20 ppm in experiment [1] was greater than 50%. The pest or weed control at 10 ppm in experiment [2] and in experiment [3] was greater than 50% throughout.
Take `C[C@@H](c1ncnn1-c1ncccn1)N(CC1CC1)C(=S)c1cc(C(F)(F)F)cc(C(F)(F)F)c1` [Example 70]: in experiment [1], the pest or weed control at 20 ppm was greater than 50%. The pest or weed control at 10 ppm in experiment [2] and in experiment [3] was greater than 50% throughout.
Turning to `C[C@@H](c1ncnn1-c1ncccn1)N(C)C(=O)c1cc(C(F)(F)F)cc(C(F)(F)F)c1` [Example 75, N-Methyl-N-[(1S)-1-(2-pyrimidin-2-yl-1,2,4-triazol-3-yl)ethyl]-3,5-bis(trifluoromethyl)benzamide], in experiment [1], the pest or weed control at 20 ppm was greater than 50%. Besides, the pest or weed control at 10 ppm in experiment [2] and in experiment [3] was greater than 50% in each case.

Values taken from patent US10287276B2, “Heteroaryl-1,2,4-triazole and heteroaryl-tetrazole compounds for controlling ectoparasites” (Elanco Tiergesundheit AG, priority 2016, dated 2019).
